A short description of this assay: The compound was evaluated for the inhibitory activity against human thrombin.

Here are results for one molecule from BindingDB's records for doi:10.1021/jm9811209 (Novartis Horsham Research Centre, 1999).

Molecules are shown by their SMILES.

One may read the Ki as the dissociation constant of the complex between target and ligand, obtained from inhibition or displacement. Read a low Ki as tighter binding. The molecule `CC1(C)CNc2c(cccc2S(=O)(=O)NC(CCCNC(=N)N)C(=O)N2CCC(CCO)CC2)C1` (stereo unspecified) [3,3-Dimethyl-1,2,3,4-tetrahydro-quinoline-8-sulfonic acid {4-guanidino-1-[4-(2-hydroxy-ethyl)-piperidine-1-carbonyl]-butyl}-amide] yielded an inhibitory constant (Ki) of 32 nM.
